One experiment deals with IFNγ. Briefly: Cytokine assay: IFNγ release from PHA-L stimulated human PBMCs. The format is cell-based. In outline: (§1)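 Thawed human PBMCs (about 250,000 per well) preincubated with compound (about 10 μM down by 4-fold dilution, 0.25% DMSO), then stimulated with 3.5 μg/mL PHA-L for 48 h at 37 °C. IL-4, IL-13 and IFNγ in supernatant measured by HTRF; IC50 from four-parameter logistic fit.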

The target of experiment [1] is PDE4B (aa 152-484, Uniprot ID Q07343) (Homo sapiens (Human), UniProt Q07343). Briefly: PDE4 SPA assay (scintillation proximity assay). The format is biochemical. As to conditions: read-out: PDE4B2 IC50. In a few lines:
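PDE4B (aa 152-484, ~81.6 pM) preincubated ~10 min with compound, then 1 μM ³H/unlabeled cAMP added in Tris pH 7.5, 1.3 mM MgCl2, 0.004% Brij 35, ~2% DMSO; 30 min at RT. Product captured on SPA beads and counted; IC50 by four-parameter logistic fit.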
In general terms: SPA uses beads or plates that emit light when radiolabelled molecules are held near them.

For the next experiment, the system named is IL-4. Nature of the experiment: Cytokine assay: IL-4 release from PHA-L stimulated human PBMCs. The experiment is classed as cell-based. As to conditions: read-out: IL4 IC50. In a few lines:
as §1

In the next experiment the test system is IL-13. Briefly: Cytokine assay: IL-13 release from PHA-L stimulated human PBMCs. The conditions noted are these: read-out: IL13 IC50. The experiment is classed as cell-based. In outline:
as §1

SMILES strings stand for the structures. Where two headings read alike, the source gives them in different places.

Usually IC50 stands for the point on the concentration scale where inhibition reaches its midpoint.

PDE4B (aa 152-484, Uniprot ID Q07343), sequence (Q07343 324-656): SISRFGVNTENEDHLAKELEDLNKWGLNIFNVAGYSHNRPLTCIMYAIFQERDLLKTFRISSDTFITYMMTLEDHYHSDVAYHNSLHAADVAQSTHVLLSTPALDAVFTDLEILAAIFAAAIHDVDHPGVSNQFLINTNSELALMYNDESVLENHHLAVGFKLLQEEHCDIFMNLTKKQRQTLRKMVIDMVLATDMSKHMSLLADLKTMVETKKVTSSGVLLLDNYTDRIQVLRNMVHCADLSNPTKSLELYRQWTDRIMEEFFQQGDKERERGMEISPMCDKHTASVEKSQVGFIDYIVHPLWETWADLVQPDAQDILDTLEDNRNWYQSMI

In the case of `CCOc1nc(-c2cccc(C3=CB(O)OC3)c2)ccc1OC` [Example 120, 4-(3-(6-ethoxy-5-methoxypyridin-2-yl)phenyl)-1,2-oxaborol-2(5H)-ol], the IC50 is 7.85 nM in the experiment with IFNγ (Homo sapiens, PBMC); 1.11 nM in experiment [1]; 171 nM in the experiment on IL-4 (Homo sapiens, PBMC); 2090 nM in the experiment on IL-13 (Homo sapiens, PBMC).
In the case of `CCOc1nc(-c2cccc(C3COB(O)C3)c2)ccc1OC` (stereo not drawn) [Example 121, 4-(3-(6-ethoxy-5-methoxypyridin-2-yl)phenyl)-1,2-oxaborolan-2-ol], the IC50 is 1.5 nM in the experiment with IFNγ (Homo sapiens, PBMC); 0.69 nM in experiment [1]; 57.4 nM in the experiment with IL-4 (Homo sapiens, PBMC); 533 nM in the experiment on IL-13 (Homo sapiens, PBMC).
On to `CCCOc1cc(-c2nc(C3COB(O)C3)cc(C(F)(F)F)n2)ccc1OC` (stereo not drawn) [Example 124, 4-(2-(4-methoxy-3-propoxyphenyl)-6-(trifluoromethyl)pyrimidin-4-yl)-1,2-oxaborolan-2-ol], for which the IC50 with IFNγ came to 10.1 nM; in experiment [1], 2.2 nM; in the experiment on IL-4, 9.48 nM; with IL-13, 1660 nM.
`COc1ccc(-c2cncc(C3COB(O)C3)n2)cc1OC1CCCC1` (stereo not drawn) [Example 125, 4-(6-(3-(cyclopentyloxy)-4-methoxyphenyl)pyrazin-2-yl)-1,2-oxaborolan-2-ol]: the 50% inhibitory concentration (IC50) in the experiment with IFNγ (Homo sapiens, PBMC) is 2.43 nM; in experiment [1], 1.7 nM; in the experiment on IL-4 (Homo sapiens, PBMC) it was 11.3 nM; with IL-13 (Homo sapiens, PBMC), 577 nM.
The matching figures for `COc1ccc(-c2cccc(C3=CB(O)OC3)c2)cc1OC1CCCC1` [Example 129, 4-(3′-(cyclopentyloxy)-4′-methoxy-[1,1′-biphenyl]-3-yl)-1,2-oxaborol-2(5H)-ol]: 24.6 nM, 4.04 nM, 34.5 nM and 3340 nM.
For the molecule `COc1ccc(-c2cccc(C3COB(O)C3)c2)cc1OC1CCCC1` (stereo not drawn) [Example 130, 4-(3′-(cyclopentyloxy)-4′-methoxy-[1,1′-biphenyl]-3-yl)-1,2-oxaborolan-2-ol], the IC50 in the experiment on IFNγ (Homo sapiens, PBMC) came to 3.21 nM; in experiment [1], 1.6 nM; with IL-4 (Homo sapiens, PBMC), 120 nM; with IL-13 (Homo sapiens, PBMC), 587 nM.
With `COc1cc(C2COB(O)C2)nc(-c2ccc(OC)c(OC3CCCC3)c2)n1` (stereo not drawn) [Example 132, 4-(2-(3-(cyclopentyloxy)-4-methoxyphenyl)-6-methoxypyrimidin-4-yl)-1,2-oxaborolan-2-ol], the IC50 in the experiment on IFNγ (Homo sapiens, PBMC) was found to be 2.42 nM; in experiment [1], 2.63 nM; in the experiment on IL-4 (Homo sapiens, PBMC) it was 12.9 nM; with IL-13 (Homo sapiens, PBMC), 604 nM.
Consider `CCCOc1cc(-c2nc(CC(=O)O)cc(C3COB(O)C3)n2)ccc1OC` (stereo not drawn) [Example 134, 2-(6-(2-hydroxy-1,2-oxaborolan-4-yl)-2-(4-methoxy-3-propoxyphenyl)pyrimidin-4-yl)acetic acid], for which the IC50 was determined as 3.04 nM in the experiment with IFNγ (Homo sapiens, PBMC); 7.46 nM in experiment [1]; 1.79 nM with IL-4 (Homo sapiens, PBMC); 1110 nM with IL-13 (Homo sapiens, PBMC).
Regarding `CCCOc1cc(-c2nc(C3COB(O)C3)ccc2F)ccc1OC` (stereo not drawn) [Example 135, 4-(5-fluoro-6-(4-methoxy-3-propoxyphenyl)pyridin-2-yl)-1,2-oxaborolan-2-ol], the IC50 in the experiment on IFNγ (Homo sapiens, PBMC) worked out at 7.24 nM; in experiment [1], 10.3 nM; in the experiment with IL-4 (Homo sapiens, PBMC) it was 15.3 nM; with IL-13 (Homo sapiens, PBMC), 668 nM.
Regarding `CCOc1cc(-c2cncc(C3COB(O)C3)c2C(F)F)ccc1OC` (stereo not drawn) [Example 138, 4-(4-(difluoromethyl)-5-(3-ethoxy-4-methoxyphenyl)pyridin-3-yl)-1,2-oxaborolan-2-ol], the IC50 worked out at 0.9 nM in the experiment with IFNγ (Homo sapiens, PBMC); 2.04 nM in experiment [1]; 1.08 nM with IL-4 (Homo sapiens, PBMC); 988 nM in the experiment on IL-13 (Homo sapiens, PBMC).
`CCOc1cc(-c2cncc(C3COB(O)C3)c2C)c(F)cc1OC` (stereo not drawn) [Example 141, 4-(5-(5-ethoxy-2-fluoro-4-methoxyphenyl)-4-methylpyridin-3-yl)-1,2-oxaborolan-2-ol]: the IC50 in the experiment with IFNγ (Homo sapiens, PBMC) amounted to 2.24 nM; in experiment [1], 0.95 nM; in the experiment on IL-4 (Homo sapiens, PBMC), 3.35 nM; in the experiment on IL-13 (Homo sapiens, PBMC) it was 701 nM.
`CCCOc1cccc(-c2cncc(C3COB(O)C3)c2)c1` (stereo not drawn) [Example 145, 4-(5-(3-propoxphenyl)pyridin-3-yl)-1,2-oxaborolan-2-ol]: the IC50 turned out to be 52.1 nM in the experiment with IFNγ (Homo sapiens, PBMC); 6.77 nM in experiment [1]; 103 nM in the experiment with IL-4 (Homo sapiens, PBMC); 2240 nM in the experiment on IL-13 (Homo sapiens, PBMC).
Regarding `CCCOc1cc(-c2nc(C3COB(O)C3)ns2)ccc1OC` (stereo not drawn) [Example 147, 4-(5-(4-methoxy-3-propoxyphenyl)-1,2,4-thiadiazol-3-yl)-1,2-oxaborolan-2-ol], the IC50 in the experiment on IFNγ (Homo sapiens, PBMC) amounted to 1.57 nM; in experiment [1], 0.44 nM; in the experiment on IL-4 (Homo sapiens, PBMC) it was 2.69 nM; in the experiment with IL-13 (Homo sapiens, PBMC), 1260 nM.
Turning to `CCCOc1cc(-c2nc(C3COB(O)C3)ns2)ccc1OC` (stereo not drawn) [Example 148], the IC50 amounted to 1.68 nM in the experiment on IFNγ, 0.24 nM in experiment [1], 4.92 nM in the experiment on IL-4 and 759 nM with IL-13.
Regarding `COc1ccc(-c2cncc(C3COB(O)C3)c2)cc1OC1CCCC1` (stereo not drawn) [Example 149, 4-(5-(3-(cyclopentyloxy)-4-methoxyphenyl)pyridin-3-yl)-1,2-oxaborolan-2-ol], the IC50 with IFNγ (Homo sapiens, PBMC) was 0.87 nM; in experiment [1] it was 0.49 nM; in the experiment on IL-4 (Homo sapiens, PBMC), 20.2 nM; with IL-13 (Homo sapiens, PBMC), 793 nM.
On to `CCOc1c(OC)ccc(-c2cccc(C3COB(O)C3)n2)c1C#N` (stereo not drawn) [Example 151, 2-ethoxy-6-(6-(2-hydroxy-1,2-oxaborolan-4-yl)pyridin-2-yl)-3-methoxybenzonitrile], for which the half-maximal inhibitory concentration (IC50) came out at 3.48 nM in the experiment with IFNγ (Homo sapiens, PBMC); 5.98 nM in experiment [1]; 39.1 nM in the experiment with IL-4 (Homo sapiens, PBMC); 813 nM with IL-13 (Homo sapiens, PBMC).
Taken in the same sequence, the figures for `COc1ccc(-c2cccc(C3COB(O)C3)c2)nc1OC` (stereo not drawn) [Example 152, 4-(3-(5,6-dimethoxypyridin-2-yl)phenyl)-1,2-oxaborolan-2-ol] were 6.02 nM, 1.38 nM, 161 nM and 828 nM.
With `COc1ccc(-c2cncc(C3COB(O)C3)c2)c(C#N)c1OC` (stereo not drawn) [Example 153, 6-(5-(2-hydroxy-1,2-oxaborolan-4-yl)pyridin-3-yl)-2,3-dimethoxybenzonitrile], the IC50 amounted to 2.57 nM in the experiment with IFNγ (Homo sapiens, PBMC); 3.24 nM in experiment [1]; 50.7 nM with IL-4 (Homo sapiens, PBMC); 860 nM with IL-13 (Homo sapiens, PBMC).
With `CCCOc1nc(-c2cccc(C3=CB(O)OC3)c2)ccc1OC` [Example 155, 4-(3-(5-methoxy-6-propoxypyridin-2-yl)phenyl)-1,2-oxaborol-2(5H)-ol], the IC50 was 5.64 nM with IFNγ (Homo sapiens, PBMC); 1.81 nM in experiment [1]; 293 nM in the experiment with IL-4 (Homo sapiens, PBMC); 2600 nM in the experiment on IL-13 (Homo sapiens, PBMC).
As for `CCCOc1nc(-c2cccc(C3COB(O)C3)c2)ccc1OC` (stereo not drawn) [Example 156, 4-(3-(5-methoxy-6-propoxypyridin-2-yl)phenyl)-1,2-oxaborolan-2-ol], the IC50 in the experiment on IFNγ (Homo sapiens, PBMC) turned out to be 1.56 nM; in experiment [1] it was 0.82 nM; in the experiment on IL-4 (Homo sapiens, PBMC) it was 127 nM; with IL-13 (Homo sapiens, PBMC) it was 901 nM.
As for `COc1cc(-c2ccc(OC)c(OC)c2)cc(C2COB(O)C2)c1` (stereo not drawn) [Example 157, 4-(3′,4′,5-trimethoxy-[1,1′-biphenyl]-3-yl)-1,2-oxaborolan-2-ol], the IC50 stood at 5.62 nM with IFNγ (Homo sapiens, PBMC); 2.96 nM in experiment [1]; 190 nM with IL-4 (Homo sapiens, PBMC); 906 nM in the experiment with IL-13 (Homo sapiens, PBMC).
Take `CCCOc1cc(-c2cc(C)cc(C3COB(O)C3)n2)ccc1OC` (stereo not drawn) [Example 158, 4-(6-(4-methoxy-3-propoxyphenyl)-4-methylpyridin-2-yl)-1,2-oxaborolan-2-ol]: the IC50 worked out at 10.2 nM in the experiment with IFNγ (Homo sapiens, PBMC); 12 nM in experiment [1]; 59.1 nM in the experiment on IL-4 (Homo sapiens, PBMC); 929 nM in the experiment on IL-13 (Homo sapiens, PBMC).
Take `COc1ccc(-c2nc(C3COB(O)C3)cs2)cc1OC` (stereo not drawn) [Example 159, 4-(2-(3,4-dimethoxyphenyl)thiazol-4-yl)-1,2-oxaborolan-2-ol]: the IC50 in the experiment with IFNγ (Homo sapiens, PBMC) is 25.1 nM; in experiment [1], 15.1 nM; with IL-4 (Homo sapiens, PBMC) it was 468 nM; in the experiment with IL-13 (Homo sapiens, PBMC), 931 nM.
On to `COc1cc(-c2cccc(C3COB(O)C3)c2)cnc1OC` (stereo not drawn) [Example 161, 4-(3-(5,6-dimethoxypyridin-3-yl)phenyl)-1,2-oxaborolan-2-ol], for which the IC50 in the experiment with IFNγ (Homo sapiens, PBMC) came out at 38.6 nM; in experiment [1], 11.3 nM; in the experiment on IL-4 (Homo sapiens, PBMC) it was 419 nM; in the experiment on IL-13 (Homo sapiens, PBMC), 960 nM.
With `COc1ccc(-c2cccc(C3COB(O)C3)n2)c(F)c1OC` (stereo not drawn) [Example 162, 4-(6-(2-fluoro-3,4-dimethoxyphenyl)pyridin-2-yl)-1,2-oxaborolan-2-ol], the IC50 amounted to 8.29 nM with IFNγ (Homo sapiens, PBMC); 14.5 nM in experiment [1]; 56.3 nM with IL-4 (Homo sapiens, PBMC); 975 nM in the experiment on IL-13 (Homo sapiens, PBMC).
Consider `CCOc1c(OC)cc(F)c(-c2cncc(C3COB(O)C3)c2)c1F` (stereo not drawn) [Example 163, 4-(5-(3-ethoxy-2,6-difluoro-4-methoxyphenyl)pyridin-3-yl)-1,2-oxaborolan-2-ol], for which the IC50 was 14.2 nM with IFNγ (Homo sapiens, PBMC); 3.71 nM in experiment [1]; 31.1 nM in the experiment on IL-4 (Homo sapiens, PBMC); 2510 nM in the experiment on IL-13 (Homo sapiens, PBMC).
With `COc1ccc(-c2cccc(C3COB(O)C3)c2)cc1OCC1CC1` (stereo not drawn) [Example 165, 4-(3′-(cyclopropylmethoxy)-4′-methoxy-[1,1′-biphenyl]-3-yl)-1,2-oxaborolan-2-ol], the half-inhibitory concentration (IC50) in the experiment with IFNγ (Homo sapiens, PBMC) was determined as 3.25 nM; in experiment [1], 2.11 nM; in the experiment with IL-4 (Homo sapiens, PBMC), 128 nM; with IL-13 (Homo sapiens, PBMC), 990 nM.
